Here are results for four compounds from ChEMBL document CHEMBL1150266, “Design and synthesis of conformationally constrained glucagon-like peptide-1 derivatives with increased plasma stability and prolonged in vivo activity” (J Med Chem, 2008).

Experiment [1] concerns the target T1, Glucagon-like peptide 1 receptor (Homo sapiens, UniProt P43220). The experiment is described as follows: Displacement of [125I]GLP1 from human GLP1R expressed in CHOK1 cells. In kind it is cell-based, CHO-K1. (Loss of bound radioactivity is the signal in a displacement assay; it reports binding, not function.)
Experiment [2] deals with T1, Glucagon-like peptide 1 receptor. The experiment is described as follows: Agonist activity at human GLP1R expressed in CHO cells assessed as increase in cAMP level by cAMP-response element/luciferase activation assay. In kind it is functional, cell-based.

Where a SMILES comes first, the peptide text is derived from it. Bridges are numbered along the chain shown (N, C = ends). Where only a bound is given, the exact number is not on record here.

T1 sequence (P43220 whole entry): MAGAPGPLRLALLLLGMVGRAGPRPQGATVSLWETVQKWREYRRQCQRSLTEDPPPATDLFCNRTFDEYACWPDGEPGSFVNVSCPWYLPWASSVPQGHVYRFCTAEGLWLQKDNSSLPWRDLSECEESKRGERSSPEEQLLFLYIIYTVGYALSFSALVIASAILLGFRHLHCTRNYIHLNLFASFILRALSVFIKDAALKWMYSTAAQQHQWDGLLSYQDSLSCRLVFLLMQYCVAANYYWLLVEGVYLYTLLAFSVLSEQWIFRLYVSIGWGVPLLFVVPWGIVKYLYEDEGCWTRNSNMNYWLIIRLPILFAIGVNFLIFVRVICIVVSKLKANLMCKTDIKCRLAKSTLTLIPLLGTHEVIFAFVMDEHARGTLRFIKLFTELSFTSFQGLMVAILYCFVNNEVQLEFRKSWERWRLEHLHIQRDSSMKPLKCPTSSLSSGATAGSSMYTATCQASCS

One may read the IC50 as the concentration that gives 50% inhibition. A high value points to lower potency. In general, EC50 refers to the concentration needed to bring the measured effect to its halfway point. In experiment [1], `CC[C@H](C)[C@@H]1NC(=O)[C@H](Cc2ccccc2)NC(=O)[C@H](CCC(=O)O)NC(=O)[C@@H](NC(=O)[C@H](C)NC(=O)[C@H](C)NC(=O)[C@H](CCC(N)=O)NC(=O)CNC(=O)[C@H](CCC(=O)O)NC(=O)[C@H](CC(C)C)NC(=O)[C@H](Cc2ccc(O)cc2)NC(=O)[C@H](CO)NC(=O)[C@H](CO)NC(=O)[C@@H](NC(=O)[C@H](CC(=O)O)NC(=O)[C@H](CO)NC(=O)[C@@H](NC(=O)[C@H](Cc2ccccc2)NC(=O)[C@@H](NC(=O)CNC(=O)[C@H](CCC(=O)O)NC(=O)CNC(=O)[C@@H](N)Cc2cnc[nH]2)[C@@H](C)O)[C@@H](C)O)C(C)C)CCC(=O)NCCCC[C@@H](C(=O)N[C@@H](Cc2c[nH]c3ccccc23)C(=O)N[C@@H](CC(C)C)C(=O)N[C@H](C(=O)N[C@@H](CCCCN)C(=O)NCC(=O)N[C@@H](CCCNC(=N)N)C(=O)NCC(N)=O)C(C)C)NC1=O` came in with an IC50 of 16 nM. The EC50 in experiment [2] turned out to be 0.024 nM.
The corresponding values for `CC[C@H](C)[C@H](NC(=O)[C@H](Cc1ccccc1)NC(=O)[C@H](CCC(=O)O)NC(=O)[C@@H]1CCCCNC(=O)CC[C@H](NC(=O)[C@H](CCC(=O)O)NC(=O)[C@H](CC(C)C)NC(=O)[C@H](Cc2ccc(O)cc2)NC(=O)[C@H](CO)NC(=O)[C@H](CO)NC(=O)[C@@H](NC(=O)[C@H](CC(=O)O)NC(=O)[C@H](CO)NC(=O)[C@@H](NC(=O)[C@H](Cc2ccccc2)NC(=O)[C@@H](NC(=O)CNC(=O)[C@H](CCC(=O)O)NC(=O)CNC(=O)[C@@H](N)Cc2c[nH]cn2)[C@@H](C)O)[C@@H](C)O)C(C)C)CC(=O)N[C@@H](CCC(N)=O)C(=O)N[C@@H](C)C(=O)N[C@@H](C)C(=O)N1)C(=O)N[C@@H](C)C(=O)N[C@@H](Cc1c[nH]c2ccccc12)C(=O)N[C@@H](CC(C)C)C(=O)N[C@H](C(=O)N[C@@H](CCCCN)C(=O)NCC(=O)N[C@@H](CCCNC(=N)N)C(=O)NCC(N)=O)C(C)C` are more than 500 nM and 1.8 nM.
On the same counts, the results for `CC[C@H](C)[C@H](NC(=O)[C@H](Cc1ccccc1)NC(=O)[C@H](CCC(=O)O)NC(=O)[C@@H]1CCCCNC(=O)CCC[C@H](NC(=O)[C@H](CCC(=O)O)NC(=O)[C@H](CC(C)C)NC(=O)[C@H](Cc2ccc(O)cc2)NC(=O)[C@H](CO)NC(=O)[C@H](CO)NC(=O)[C@@H](NC(=O)[C@H](CC(=O)O)NC(=O)[C@H](CO)NC(=O)[C@@H](NC(=O)[C@H](Cc2ccccc2)NC(=O)[C@@H](NC(=O)CNC(=O)[C@H](CCC(=O)O)NC(=O)CNC(=O)[C@@H](N)Cc2c[nH]cn2)[C@@H](C)O)[C@@H](C)O)C(C)C)C(=O)N[C@@H](CCC(N)=O)C(=O)N[C@@H](C)C(=O)N[C@@H](C)C(=O)N1)C(=O)N[C@@H](C)C(=O)N[C@@H](Cc1c[nH]c2ccccc12)C(=O)N[C@@H](CC(C)C)C(=O)N[C@H](C(=O)N[C@@H](CCCCN)C(=O)NCC(=O)N[C@@H](CCCNC(=N)N)C(=O)NCC(N)=O)C(C)C` are 6.2 nM and 0.004 nM.
On the same counts, the results for `CC[C@H](C)[C@H](NC(=O)[C@H](Cc1ccccc1)NC(=O)[C@H](CCC(=O)O)NC(=O)[C@H](CCCCN)NC(=O)[C@H](C)NC(=O)[C@H](C)NC(=O)[C@@H]1CCCCNC(=O)CC[C@H](NC(=O)[C@H](CO)NC(=O)[C@H](CO)NC(=O)[C@@H](NC(=O)[C@H](CC(=O)O)NC(=O)[C@H](CO)NC(=O)[C@@H](NC(=O)[C@H](Cc2ccccc2)NC(=O)[C@@H](NC(=O)CNC(=O)[C@H](CCC(=O)O)NC(=O)CNC(=O)[C@@H](N)Cc2c[nH]cn2)[C@@H](C)O)[C@@H](C)O)C(C)C)C(=O)N[C@@H](CC(C)C)C(=O)N[C@@H](CCC(=O)O)C(=O)NCC(=O)N1)C(=O)N[C@@H](C)C(=O)N[C@@H](Cc1c[nH]c2ccccc12)C(=O)N[C@@H](CC(C)C)C(=O)N[C@H](C(=O)N[C@@H](CCCCN)C(=O)NCC(=O)N[C@@H](CCCNC(=N)N)C(=O)NCC(N)=O)C(C)C` (H-HGEGTFTSDVSSELEGKAAKEFIAWLVKGRG-NH2; lactam 13-17) are 17 nM and 0.077 nM.
